{
  "source": "paper PMC12951562",
  "about": "“SH2scan: Mapping SH2 Domain-Ligand Binding Selectivity for Inhibitors and Degraders” (Journal of Medicinal Chemistry, 2026)",
  "test_in_all_cases": "biochemical",
  "type_in_all_cases": "binding",
  "key": {"BLNK": {"molecular_target": "T1, BLNK (Homo sapiens, UniProt Q8WV28)", "T1 construct": "the DNA-tagged SH2 domain concentrations used in this study were <0.1 nM; made in house; host or cells: HEK293 (transient transfection; unpurified extract)", "T1 sequence (Q8WV28 346-453 limits assumed)": "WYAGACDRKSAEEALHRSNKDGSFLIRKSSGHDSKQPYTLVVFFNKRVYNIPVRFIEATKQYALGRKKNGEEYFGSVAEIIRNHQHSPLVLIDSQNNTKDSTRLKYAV", "conditions": "primary screen, 10 μM; read-out: percent of DMSO vehicle control"}, "BRK": {"molecular_target": "T2, BRK (Homo sapiens, UniProt Q13882)", "T2 construct": "the DNA-tagged SH2 domain concentrations used in this study were <0.1 nM; made in house; host or cells: HEK293 (transient transfection; unpurified extract)", "T2 sequence (Q13882 78-170 limits assumed)": "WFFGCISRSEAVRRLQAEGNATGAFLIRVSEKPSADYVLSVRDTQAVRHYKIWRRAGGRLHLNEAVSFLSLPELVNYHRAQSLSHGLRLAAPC"}, "CRKL": {"molecular_target": "T3, CRKL (Homo sapiens, UniProt P46109)", "T3 construct": "the DNA-tagged SH2 domain concentrations used in this study were <0.1 nM; made in house; host or cells: HEK293 (transient transfection; unpurified extract)", "T3 sequence (P46109 14-102 limits assumed)": "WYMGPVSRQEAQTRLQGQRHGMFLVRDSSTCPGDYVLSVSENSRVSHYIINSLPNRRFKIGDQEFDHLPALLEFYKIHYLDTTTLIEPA", "conditions": "primary screen, 10 μM; read-out: percent of DMSO vehicle control"}, "DAPP1": {"molecular_target": "T4, DAPP1 (Homo sapiens, UniProt Q9UN19)", "T4 construct": "the DNA-tagged SH2 domain concentrations used in this study were <0.1 nM; made in house; host or cells: HEK293 (transient transfection; unpurified extract)", "T4 sequence (Q9UN19 35-129 limits assumed)": "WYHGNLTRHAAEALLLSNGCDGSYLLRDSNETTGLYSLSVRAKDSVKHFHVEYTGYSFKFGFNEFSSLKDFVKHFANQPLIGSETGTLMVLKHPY", "conditions": "primary screen, 10 μM; read-out: percent of DMSO vehicle control"}, "FES": {"molecular_target": "T5, FES (Homo sapiens, UniProt P07332)", "T5 construct": "the DNA-tagged SH2 domain concentrations used in this study were <0.1 nM; made in house; host or cells: HEK293 (transient transfection; unpurified extract)", "T5 sequence (P07332 460-549 limits assumed)": "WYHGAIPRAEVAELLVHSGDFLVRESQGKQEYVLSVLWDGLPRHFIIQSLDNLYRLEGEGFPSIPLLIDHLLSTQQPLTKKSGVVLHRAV", "conditions": "primary screen, 10 μM; read-out: percent of DMSO vehicle control"}, "FYN": {"molecular_target": "T6, FYN (Homo sapiens, UniProt P06241)", "T6 construct": "the DNA-tagged SH2 domain concentrations used in this study were <0.1 nM; made in house; host or cells: HEK293 (transient transfection; unpurified extract)", "T6 sequence (P06241 149-246 limits assumed)": "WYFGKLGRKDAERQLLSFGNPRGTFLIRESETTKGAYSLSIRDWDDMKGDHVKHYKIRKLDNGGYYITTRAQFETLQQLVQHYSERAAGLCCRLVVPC", "conditions": "primary screen, 10 μM; read-out: percent of DMSO vehicle control"}, "GRB2": {"molecular_target": "T7, GRB2 (Homo sapiens, UniProt P62993)", "T7 construct": "the DNA-tagged SH2 domain concentrations used in this study were <0.1 nM; made in house; host or cells: HEK293 (transient transfection; unpurified extract)", "T7 sequence (P62993 60-152 limits assumed)": "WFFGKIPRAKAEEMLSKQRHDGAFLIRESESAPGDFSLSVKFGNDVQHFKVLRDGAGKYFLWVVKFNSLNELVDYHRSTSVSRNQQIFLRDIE", "conditions": "primary screen, 10 μM"}, "MATK": {"molecular_target": "T8, MATK (Homo sapiens, UniProt P42679)", "T8 construct": "the DNA-tagged SH2 domain concentrations used in this study were <0.1 nM; made in house; host or cells: HEK293 (transient transfection, unpurified extract)", "T8 sequence (P42679 122-211 limits assumed)": "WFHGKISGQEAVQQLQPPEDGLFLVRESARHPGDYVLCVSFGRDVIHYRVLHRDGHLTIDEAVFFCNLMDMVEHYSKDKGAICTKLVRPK", "conditions": "primary screen, 10 μM; read-out: percent of DMSO vehicle control"}, "NCK1": {"molecular_target": "T9, NCK1 (Homo sapiens, UniProt P16333)", "T9 construct": "the DNA-tagged SH2 domain concentrations used in this study were <0.1 nM; made in house; host or cells: HEK293 (transient transfection, unpurified extract)", "conditions": "primary screen, 10 μM; read-out: percent of DMSO vehicle control"}, "RASA1(SH2dom.C-term.)": {"molecular_target": "T10, RASA1(SH2dom.C-term.) (Homo sapiens, UniProt P20936)", "T10 construct": "SH2dom.C-term. denotes SH2 domain closest to C-terminus of protein; made in house; host or cells: HEK293 (transient transfection, unpurified extract)", "T10 sequence (P20936 351-441 limits assumed)": "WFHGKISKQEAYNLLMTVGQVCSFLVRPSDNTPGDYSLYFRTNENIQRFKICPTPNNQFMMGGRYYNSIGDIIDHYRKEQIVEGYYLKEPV", "conditions": "primary screen, 10 μM; read-out: percent of DMSO vehicle control"}, "SHC4": {"molecular_target": "T11, SHC4 (Homo sapiens, UniProt Q6S5L8)", "T11 construct": "made in house; host or cells: HEK293 (transient transfection), unpurified extract", "T11 sequence (Q6S5L8 1-630)": "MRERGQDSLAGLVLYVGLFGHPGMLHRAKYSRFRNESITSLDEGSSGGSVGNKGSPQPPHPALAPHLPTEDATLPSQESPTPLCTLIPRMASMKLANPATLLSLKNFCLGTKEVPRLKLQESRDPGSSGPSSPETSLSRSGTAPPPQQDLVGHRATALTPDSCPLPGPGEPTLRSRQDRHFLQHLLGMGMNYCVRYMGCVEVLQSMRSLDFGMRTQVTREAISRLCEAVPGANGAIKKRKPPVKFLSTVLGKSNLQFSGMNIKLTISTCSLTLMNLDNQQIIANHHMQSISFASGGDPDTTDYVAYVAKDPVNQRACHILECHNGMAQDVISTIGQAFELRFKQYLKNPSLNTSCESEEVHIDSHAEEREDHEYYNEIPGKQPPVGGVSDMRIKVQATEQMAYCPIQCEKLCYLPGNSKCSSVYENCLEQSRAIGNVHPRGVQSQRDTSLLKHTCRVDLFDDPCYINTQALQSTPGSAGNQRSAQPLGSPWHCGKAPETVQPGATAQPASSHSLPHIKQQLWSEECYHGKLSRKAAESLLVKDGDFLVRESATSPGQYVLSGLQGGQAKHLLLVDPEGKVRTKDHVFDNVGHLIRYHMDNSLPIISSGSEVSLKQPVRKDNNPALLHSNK", "conditions": "primary screen, 10 μM; read-out: percent of DMSO vehicle control"}, "SRC": {"molecular_target": "T12, SRC (Homo sapiens, UniProt P12931)", "T12 construct": "made in house; host or cells: HEK293 (transient transfection), unpurified extract", "T12 sequence (P12931 whole entry)": "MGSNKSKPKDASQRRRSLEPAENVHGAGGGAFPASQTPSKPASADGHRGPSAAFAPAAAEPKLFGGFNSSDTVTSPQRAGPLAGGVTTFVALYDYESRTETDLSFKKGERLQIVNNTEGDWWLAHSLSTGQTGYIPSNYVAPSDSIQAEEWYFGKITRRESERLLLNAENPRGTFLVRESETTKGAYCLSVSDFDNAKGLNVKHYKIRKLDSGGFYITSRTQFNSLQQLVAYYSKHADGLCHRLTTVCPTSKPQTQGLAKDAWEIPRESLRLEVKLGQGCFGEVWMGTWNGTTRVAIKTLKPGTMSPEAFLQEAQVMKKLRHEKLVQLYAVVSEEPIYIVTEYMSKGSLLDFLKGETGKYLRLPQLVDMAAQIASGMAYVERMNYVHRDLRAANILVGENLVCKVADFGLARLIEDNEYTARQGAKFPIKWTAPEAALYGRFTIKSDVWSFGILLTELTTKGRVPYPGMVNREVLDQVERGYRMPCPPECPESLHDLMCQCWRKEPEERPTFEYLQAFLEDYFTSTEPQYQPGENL", "conditions": "primary screen, 10 μM; read-out: percent of DMSO vehicle control"}, "VAV3": {"molecular_target": "T13, VAV3 (Homo sapiens, UniProt Q9UKW4)", "T13 construct": "made in house; host or cells: HEK293 (transient transfection), unpurified extract", "T13 sequence (Q9UKW4 1-847)": "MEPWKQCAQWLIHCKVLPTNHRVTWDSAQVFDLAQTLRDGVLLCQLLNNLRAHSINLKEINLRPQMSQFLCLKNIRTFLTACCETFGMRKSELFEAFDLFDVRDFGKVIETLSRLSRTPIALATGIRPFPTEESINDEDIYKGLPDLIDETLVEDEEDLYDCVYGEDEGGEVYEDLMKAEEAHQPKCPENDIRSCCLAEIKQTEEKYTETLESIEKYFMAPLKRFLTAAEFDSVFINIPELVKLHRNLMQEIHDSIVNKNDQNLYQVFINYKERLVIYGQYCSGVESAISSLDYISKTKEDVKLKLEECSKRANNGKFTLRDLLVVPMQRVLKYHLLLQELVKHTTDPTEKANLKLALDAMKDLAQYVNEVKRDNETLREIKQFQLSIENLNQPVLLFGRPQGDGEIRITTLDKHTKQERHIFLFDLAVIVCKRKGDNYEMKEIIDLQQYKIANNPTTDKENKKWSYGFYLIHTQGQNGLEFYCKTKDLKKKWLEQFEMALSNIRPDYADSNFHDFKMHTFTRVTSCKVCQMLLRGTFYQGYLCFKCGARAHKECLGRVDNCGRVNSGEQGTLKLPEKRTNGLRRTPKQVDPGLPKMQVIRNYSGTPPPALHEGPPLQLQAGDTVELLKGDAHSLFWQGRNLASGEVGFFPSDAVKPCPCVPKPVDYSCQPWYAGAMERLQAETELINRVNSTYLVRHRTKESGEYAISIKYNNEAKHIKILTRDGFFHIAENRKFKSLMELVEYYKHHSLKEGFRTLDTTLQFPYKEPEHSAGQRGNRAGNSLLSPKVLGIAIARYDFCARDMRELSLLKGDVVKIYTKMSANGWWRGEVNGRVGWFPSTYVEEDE", "conditions": "primary screen, 10 μM; read-out: percent of DMSO vehicle control"}},
  "data": [
    {"smiles": "O=C(COc1ccc2cc(C(=O)Nc3ccccc3)ccc2c1)NCc1ccc(OP(=O)(O)O)c(OP(=O)(O)O)c1", "note": "[Stafib-1]", "values": [
      {"measurement": "remaining activity at 10 µM", "setting": "BLNK", "result": 158, "unit": "%"},
      {"measurement": "KD", "setting": "BRK; dose-response", "result": "No Hit"},
      {"measurement": "remaining activity at 10 µM", "setting": "BRK; primary screen, 10 μM, read-out: percent of DMSO vehicle control", "result": "5.4 ± 60.2", "unit": "%"},
      {"measurement": "remaining activity at 10 µM", "setting": "CRKL", "result": 120, "unit": "%"},
      {"measurement": "remaining activity at 10 µM", "setting": "DAPP1", "result": 100, "unit": "%"},
      {"measurement": "remaining activity at 10 µM", "setting": "FES", "result": 116, "unit": "%"},
      {"measurement": "remaining activity at 10 µM", "setting": "FYN", "result": "92.1 ± 35.5", "unit": "%"},
      {"measurement": "percent of DMSO vehicle control", "setting": "GRB2", "result": "79.5±8.8", "unit": "%"},
      {"measurement": "remaining activity at 10 µM", "setting": "MATK", "result": "59.9 ± 60.2", "unit": "%"},
      {"measurement": "remaining activity at 10 µM", "setting": "NCK1", "result": "53.7 ± 39.3", "unit": "%"},
      {"measurement": "remaining activity at 10 µM", "setting": "RASA1(SH2dom.C-term.)", "result": "97 ± 11.7", "unit": "%"},
      {"measurement": "remaining activity at 10 µM", "setting": "SHC4", "result": 103, "unit": "%"},
      {"measurement": "remaining activity at 10 µM", "setting": "SRC", "result": "90.6 ± 5.2", "unit": "%"},
      {"measurement": "remaining activity at 10 µM", "setting": "VAV3", "result": 102, "unit": "%"}
    ]}
  ]
}
